Here are results for 7 compounds from patent US20230146870A1, “METHOD TO QUANTIFY AFFINITY AND SELECTIVITY OF SMALL MOLECULES FOR PROTEINS IN LIVING CELLS” (Ohio State Innovation Foundation, priority 2021, published 2023).

The target of one assay is T1, mouse PKCε-mVenus (Mus musculus, UniProt P16054).
T1 sequence (P16054 1-737): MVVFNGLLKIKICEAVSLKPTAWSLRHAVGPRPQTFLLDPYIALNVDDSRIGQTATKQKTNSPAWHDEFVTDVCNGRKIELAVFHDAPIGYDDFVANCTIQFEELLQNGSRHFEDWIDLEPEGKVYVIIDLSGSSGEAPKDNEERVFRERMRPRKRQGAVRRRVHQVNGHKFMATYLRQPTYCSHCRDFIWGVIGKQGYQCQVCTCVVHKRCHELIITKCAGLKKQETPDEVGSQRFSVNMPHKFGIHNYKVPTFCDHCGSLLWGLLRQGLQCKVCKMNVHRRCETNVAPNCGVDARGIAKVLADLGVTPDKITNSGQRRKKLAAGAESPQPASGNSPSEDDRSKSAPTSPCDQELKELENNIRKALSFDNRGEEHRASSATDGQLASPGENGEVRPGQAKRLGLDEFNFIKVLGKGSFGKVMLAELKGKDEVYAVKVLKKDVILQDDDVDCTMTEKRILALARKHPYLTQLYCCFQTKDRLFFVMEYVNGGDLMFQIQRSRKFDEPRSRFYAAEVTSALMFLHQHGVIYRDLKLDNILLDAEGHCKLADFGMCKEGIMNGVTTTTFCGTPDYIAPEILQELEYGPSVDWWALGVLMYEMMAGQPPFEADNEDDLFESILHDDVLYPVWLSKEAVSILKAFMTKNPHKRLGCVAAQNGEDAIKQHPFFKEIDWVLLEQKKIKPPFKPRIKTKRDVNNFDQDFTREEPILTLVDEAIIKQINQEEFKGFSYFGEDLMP
The experiment in a line: Fluorescent cellular competition assay with probe 47, PKCε-mVenus. It counts as binding. More on the design: eight plasmids encoding full length mouse PKC isozymes fused to; expressed in transfected cells; host or cells: HEK293. From the text: (§1) Labeled compounds (tracers) can be used to measure dissociation constants (Kd) and evaluate how tightly different compounds bind to a target protein. However, labeled ligands are not always readily accessible and labels such as fluorophores on small molecules can affect affinities compared to unlabeled compounds. As an alternative, competitive binding assays are widely used to quantify the affinity of small molecules for target proteins. This approach can measure binding by varying the concentration of an unlabeled ligand in the presence of a fixed concentration of a tracer of interest (FIG. 24). The feasibility of this approach for quantification of cellular Ki values using probe 47 was validated with PMA as shown in Table 1.
(§2) HEK293 cells were transfected with different plasmids encoding fluorescent PKC isoforms.

The next assay has as its target mouse PKCγ-mVenus (Mus musculus, UniProt P63318). The experiment in a line: Fluorescent cellular competition assay with probe 47, PKCγ-mVenus. The format is binding. Also noted: eight plasmids encoding full length mouse PKC isozymes fused to; expressed in transfected cells; host or cells: HEK293.
Excerpt: as §1, §2

The target of the next assay is mouse PKCθ-mVenus (Mus musculus, UniProt Q02111). The experiment in a line: Fluorescent cellular competition assay with probe 47, PKCθ-mVenus. It counts as binding. Also noted: eight plasmids encoding full length mouse PKC isozymes fused to; expressed in transfected cells; host or cells: HEK293 (transient).
Sequence of mouse PKCθ-mVenus (Q02111 whole entry, the tested form may be a part): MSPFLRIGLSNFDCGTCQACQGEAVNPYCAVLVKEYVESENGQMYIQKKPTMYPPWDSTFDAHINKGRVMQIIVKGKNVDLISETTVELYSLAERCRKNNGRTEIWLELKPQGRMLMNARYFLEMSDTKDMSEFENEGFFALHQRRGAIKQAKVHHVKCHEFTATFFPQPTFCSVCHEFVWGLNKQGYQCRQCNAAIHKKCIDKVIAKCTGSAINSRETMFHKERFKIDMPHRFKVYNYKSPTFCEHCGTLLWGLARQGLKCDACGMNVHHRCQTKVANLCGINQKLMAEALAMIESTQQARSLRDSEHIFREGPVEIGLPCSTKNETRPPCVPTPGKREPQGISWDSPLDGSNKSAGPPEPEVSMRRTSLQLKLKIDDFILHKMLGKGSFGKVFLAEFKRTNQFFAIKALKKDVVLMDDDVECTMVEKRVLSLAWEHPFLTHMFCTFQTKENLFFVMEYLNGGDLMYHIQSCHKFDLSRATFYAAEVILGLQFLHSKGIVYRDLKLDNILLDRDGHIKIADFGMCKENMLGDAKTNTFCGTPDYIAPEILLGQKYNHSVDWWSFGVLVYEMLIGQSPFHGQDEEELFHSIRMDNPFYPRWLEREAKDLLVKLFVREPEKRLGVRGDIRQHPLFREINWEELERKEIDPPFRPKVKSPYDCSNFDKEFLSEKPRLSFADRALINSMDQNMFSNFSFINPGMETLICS
Excerpt: as §1, §2

In another assay the target is mouse PKCα-mVenus (Mus musculus, UniProt P20444). The experiment in a line: Fluorescent cellular competition assay with probe 47, PKCα-mVenus. It counts as binding. More on the design: eight plasmids encoding full length mouse PKC isozymes fused to; expressed in transfected cells; host or cells: HEK293.
Excerpt: as §1, §2

Assay [1] addresses T2, mouse PKCβI-mVenus (Mus musculus, UniProt P68404).
T2 construct: eight plasmids encoding full length mouse PKC isozymes fused to; expressed in transfected cells; host or cells: HEK293
The experiment in a line: Fluorescent cellular competition assay with probe 47, PKCβI-mVenus. The format is binding.
Excerpt: as §1, §2

In another assay the target is mouse PKCδ-mVenus (Mus musculus, UniProt P28867). The experiment in a line: Fluorescent cellular competition assay with probe 47, PKCδ-mVenus. It counts as binding. Also noted: eight plasmids encoding full length mouse PKC isozymes fused to; expressed in transfected cells; host or cells: HEK293.
Sequence of mouse PKCδ-mVenus (P28867 whole entry, the tested form may be a part): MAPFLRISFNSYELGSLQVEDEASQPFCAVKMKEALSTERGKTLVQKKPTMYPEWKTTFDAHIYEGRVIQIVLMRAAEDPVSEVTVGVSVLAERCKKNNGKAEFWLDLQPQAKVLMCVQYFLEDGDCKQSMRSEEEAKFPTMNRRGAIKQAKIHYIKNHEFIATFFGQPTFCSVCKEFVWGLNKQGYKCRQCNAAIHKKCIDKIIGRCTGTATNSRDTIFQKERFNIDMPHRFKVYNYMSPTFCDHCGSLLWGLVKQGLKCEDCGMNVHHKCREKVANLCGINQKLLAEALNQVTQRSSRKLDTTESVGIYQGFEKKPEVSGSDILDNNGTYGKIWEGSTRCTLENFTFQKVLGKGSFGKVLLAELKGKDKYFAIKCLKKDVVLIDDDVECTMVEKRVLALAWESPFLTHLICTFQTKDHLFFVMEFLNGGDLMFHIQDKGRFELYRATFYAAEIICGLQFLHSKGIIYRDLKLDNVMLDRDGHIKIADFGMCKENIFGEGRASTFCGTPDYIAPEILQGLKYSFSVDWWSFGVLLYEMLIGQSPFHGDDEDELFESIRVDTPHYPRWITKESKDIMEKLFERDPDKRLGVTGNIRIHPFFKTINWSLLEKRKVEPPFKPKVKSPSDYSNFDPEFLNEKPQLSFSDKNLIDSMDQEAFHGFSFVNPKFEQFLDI
Excerpt: as §1, §2

A further assay addresses mouse PKCη-mVenus (Mus musculus, UniProt P23298). The experiment in a line: Fluorescent cellular competition assay with probe 47, PKCη-mVenus. It counts as binding. Also noted: eight plasmids encoding full length mouse PKC isozymes fused to; expressed in transfected cells; host or cells: HEK293.
Excerpt: as §1, §2

For assay [2], the system named is microtubules (taxane binding site) in living HeLa cells. The experiment in a line: Competition binding assay with PB-GABA-Taxol in living HeLa cells (cellular Ki). Conditions: read-out: cellular Ki; PB-GABA-Taxol 1.5 μM, verapamil 100 μM, 37° C., 4% FBS, 3 h.
Protocol: In this assay the cellular Kd was measured by varying the concentration of the fluorescent probe added to cells at equilibrium as established by kinetic assays of probe uptake. Total binding of this probe to specific and non-specific sites in cells in the presence of the efflux inhibitor verapamil was determined by flow cytometry. Non-specific binding was quantified separately by addition of excess paclitaxel with the probe under the same conditions. Subtraction of the linear non-specific binding contribution from the total binding curve was used analyze specific binding of the probe to tubulin of microtubules. Measurement of this cellular dissociation constant under equilibrium conditions further allowed conversion of the half-maximal inhibitory concentration (IC50) of unlabeled compounds into cellular inhibitory constants using an adaptation of the Cheng-Prusoff equation^44 for competitive modulators (Ki) or the allosteric equation^45 for non-competitive modulators (Kb and the cooperativity factor α) as implemented by GraphPad Prism.
Assay [3] has as its target crosslinked / purified microtubules. Conditions: previously reported, cited from earlier work; for Ki: read-out: biochemical Ki for microtubules.
Assay [4] concerns microtubules in living HeLa cells. The experiment in a line: Allosteric modulator assay with PB-GABA-Taxol in living HeLa cells (cellular Kb, α). Conditions: PB-GABA-Taxol 1.5 μM, verapamil 100 μM, 3 h, 37° C.; for Kb: read-out: cellular Kb (allosteric modulator).
Excerpt: In this model, two compounds that engage tubulin at different binding sites influence the binding of each other through cooperativity. […] Smaller cooperativity factors (α) represent stronger effects on binding of the orthosteric probe. For these allosteric modulators, the apparent cellular affinity was defined as Kb, and the mathematical relationship between Kb and α is provided (equation 3).
The experimental method for allosteric binding assays was identical to the competition binding assays described previously. However, because it is inaccurate to describe an allosteric modulator with a competitive inhibitory constant (Ki), we used an allosteric modulator model (Kb) for data analysis. […] The observed occupancy of the orthosteric ligand is defined as KApp and is determined by the equilibrium dissociation constant of the orthosteric ligand (Kd), the concentration of allosteric ligand, its affinity for the receptor (Kb), and the strength by which the allosteric ligand affects receptor binding to the orthosteric ligand as defined by the cooperativity factor (a).
In assay [5] the target is T2, mouse PKCβI-mVenus. The experiment in a line: Apparent cellular Kd by flow cytometry, HEK293 cells overexpressing PKCβI-mVenus (Example 2). The format is binding. As for the experimental part: The apparent Kd values of these fluorescent probes were measured using different PKC isozymes (e.g., PKCβI, FIGS. 20A-20D). HEK293 cells were transfected to overexpress PKCβ-mVenus and treated with probes in the presence of verapamil (100 μM) as an inhibitor of efflux.

A further assay deals with T3, C1A-C1A-EYFP (PKCγ) (UniProt P63319).
T3 construct: apparent Kd; other: verapamil 100 μM, 90 min, 37° C., DMEM high glucose, 4% FBS; half time (t1/2) of cellular fluorescence; other: 33 at 5 μM, verapamil 100 μM, room temperature; fused on or other part: EYFP at the C-terminus; the C1A module is present twice in one chain
The experiment in a line: Cellular binding by flow cytometry, HEK293 cells expressing C1A-C1A-EYFP (PKCγ). From the text:
The dissociation constant can be defined as the ratio of koff divided by kon. This value is also the concentration where the ligand occupies 50% of the receptor.^94 Kd is only meaningful when equilibrium is reached, where the ligand-receptor complex is formed at the same rate as it dissociates into free ligand and receptor (FIG. 15). This binding equilibrium is established when essentially no further change in the amount of bound complex is observed over time. To evaluate the time needed for equilibration, we treated HEK293 cells that overexpress C1A-C1A-EYFP (PKCγ) with 33 (0 and 5 μM) in the presence or absence of verapamil (100 μM) and cellular fluorescence was measured by flow cytometry as a function of time (FIG. 18A). […] This optimization was used to establish a 90 min equilibration period for further assay optimization.
The presence of fetal bovine serum (FBS) in the culture media also influenced the binding by sequestering the free ligand. The assay conditions were finalized using HEK293 cells incubated with the probe in the presence of verapamil for 90 min at 37° C. in DMEM media (high glucose, 4% FBS).
On the technique in general: In flow cytometry, cells or beads pass a laser one at a time.

Sequence of mouse PKCη-mVenus (P23298 whole entry, the tested form may be a part): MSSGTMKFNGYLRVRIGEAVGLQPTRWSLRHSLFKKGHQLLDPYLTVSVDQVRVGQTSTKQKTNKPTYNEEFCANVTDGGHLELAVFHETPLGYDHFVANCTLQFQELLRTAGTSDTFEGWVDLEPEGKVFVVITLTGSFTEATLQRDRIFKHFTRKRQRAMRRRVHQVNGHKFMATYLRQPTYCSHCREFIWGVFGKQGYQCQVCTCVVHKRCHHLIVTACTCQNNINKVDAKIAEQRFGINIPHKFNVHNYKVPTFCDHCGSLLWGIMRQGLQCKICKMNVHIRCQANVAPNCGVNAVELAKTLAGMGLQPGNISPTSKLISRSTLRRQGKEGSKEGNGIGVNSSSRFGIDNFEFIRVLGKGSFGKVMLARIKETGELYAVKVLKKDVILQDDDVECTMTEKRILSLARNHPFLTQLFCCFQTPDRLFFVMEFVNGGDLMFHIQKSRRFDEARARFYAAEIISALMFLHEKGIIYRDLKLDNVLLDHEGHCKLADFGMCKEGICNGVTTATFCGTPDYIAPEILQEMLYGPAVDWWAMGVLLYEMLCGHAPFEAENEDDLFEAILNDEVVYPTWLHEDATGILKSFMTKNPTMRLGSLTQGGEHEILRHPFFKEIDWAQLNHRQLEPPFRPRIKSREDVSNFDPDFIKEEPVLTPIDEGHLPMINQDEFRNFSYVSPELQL
T2 sequence (P68404 whole entry, the tested form may be a part): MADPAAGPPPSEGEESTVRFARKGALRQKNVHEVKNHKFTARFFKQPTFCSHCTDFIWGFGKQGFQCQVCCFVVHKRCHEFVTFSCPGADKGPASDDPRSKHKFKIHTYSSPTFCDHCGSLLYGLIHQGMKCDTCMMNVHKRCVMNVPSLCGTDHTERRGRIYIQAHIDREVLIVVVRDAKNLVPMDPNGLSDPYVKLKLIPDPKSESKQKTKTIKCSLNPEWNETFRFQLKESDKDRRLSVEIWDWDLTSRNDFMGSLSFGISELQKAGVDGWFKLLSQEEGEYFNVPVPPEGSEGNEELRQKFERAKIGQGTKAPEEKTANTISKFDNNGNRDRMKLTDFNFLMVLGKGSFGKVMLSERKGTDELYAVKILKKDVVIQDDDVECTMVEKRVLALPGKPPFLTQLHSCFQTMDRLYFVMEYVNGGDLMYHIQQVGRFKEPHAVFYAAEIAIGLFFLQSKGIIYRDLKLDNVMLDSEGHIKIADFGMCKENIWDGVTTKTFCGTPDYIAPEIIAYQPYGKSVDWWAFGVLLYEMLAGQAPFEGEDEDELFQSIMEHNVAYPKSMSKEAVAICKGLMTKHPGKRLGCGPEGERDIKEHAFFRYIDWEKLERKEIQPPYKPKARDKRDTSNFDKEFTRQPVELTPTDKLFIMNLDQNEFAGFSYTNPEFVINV

`CCCCCCCCCCCCCC(=O)O[C@@H]1[C@@H](C)[C@@]2(O)[C@@H](C=C(CO)C[C@]3(O)C(=O)C(C)=C[C@@H]23)[C@@H]2C(C)(C)[C@]12OC(C)=O` [PMA, 12-O-tetradecanoylphorbol-13-acetate]: the “Efficacy, PKCε” value at mouse PKCε-mVenus (PMA vs probe 47) is given as 81%. The “IC50/Ki, PKCε” value on mouse PKCε-mVenus (PMA vs probe 47) came out at 1.4. The IC50 (commonly the midpoint of a concentration-inhibition curve) at mouse PKCε-mVenus (probe 47 2.9 μM, verapamil 25 μM, read-out: IC50 (PMA), PKCε) came out at 49 nM; at mouse PKCγ-mVenus (probe 47 2.9 μM, verapamil 25 μM, read-out: IC50 (PMA), PKCγ), 12 nM; at mouse PKCθ-mVenus (probe 47 4.3 μM, verapamil 25 μM, read-out: IC50 (PMA), PKCθ), 13 nM; on mouse PKCα-mVenus (probe 47 1.4 μM, verapamil 25 μM, read-out: IC50 (PMA), PKCα) it was 14 nM; on mouse PKCβI-mVenus [1] (probe 47 1.4 μM, verapamil 25 μM, read-out: IC50 (PMA), PKCβI) it was 15 nM; on mouse PKCδ-mVenus (probe 47 5.8 μM, verapamil 25 μM, read-out: IC50 (PMA), PKCδ), 39 nM. On mouse PKCη-mVenus (probe 47 4.3 μM, verapamil 25 μM, read-out: IC50 (PMA), PKCη), the concentration for half-maximal inhibition (IC50) amounted to 32 nM. Also, the Ki – broadly, a dissociation constant, usually derived from enzyme kinetics or from competition with a known ligand – at mouse PKCε-mVenus (probe 47 2.9 μM, verapamil 25 μM, read-out: Ki (PMA), PKCε) amounted to 36 nM; on mouse PKCγ-mVenus (probe 47 2.9 μM, verapamil 25 μM, read-out: Ki (PMA), PKCγ) it was 4.9 nM; at mouse PKCθ-mVenus (probe 47 4.3 μM, verapamil 25 μM, read-out: Ki (PMA), PKCθ), 10 nM; at mouse PKCα-mVenus (probe 47 1.4 μM, verapamil 25 μM, read-out: Ki (PMA), PKCα) it was 7.5 nM; on mouse PKCβI-mVenus [1] (probe 47 1.4 μM, verapamil 25 μM, read-out: Ki (PMA), PKCβI), 5.7 nM; on mouse PKCδ-mVenus (probe 47 5.8 μM, verapamil 25 μM, read-out: Ki (PMA), PKCδ), 23 nM. Moreover, the Ki on mouse PKCη-mVenus (probe 47 4.3 μM, verapamil 25 μM, read-out: Ki (PMA), PKCη) was found to be 21 nM. Further, the “Efficacy, PKCγ” value at mouse PKCγ-mVenus (PMA vs probe 47) is 97%. At mouse PKCγ-mVenus (PMA vs probe 47), the “IC50/Ki, PKCγ” value is on record as 2.4. The “Efficacy, PKCθ” value at mouse PKCθ-mVenus (PMA vs probe 47) stood at 80%. For the same compound, the “IC50/Ki, PKCθ” value at mouse PKCθ-mVenus (PMA vs probe 47) was 1.4. Also, on mouse PKCα-mVenus (PMA vs probe 47), the “Efficacy, PKCα” value was determined as 95%. In addition, on mouse PKCα-mVenus (PMA vs probe 47), the “IC50/Ki, PKCα” value is reported as 1.9. For the same compound, the “Efficacy, PKCβI” value on mouse PKCβI-mVenus [1] (PMA vs probe 47) was found to be 103%. For the same compound, on mouse PKCβI-mVenus [1] (PMA vs probe 47), the “IC50/Ki, PKCβI” value amounted to 2.5. Besides, the “Efficacy, PKCδ” value on mouse PKCδ-mVenus (PMA vs probe 47) stood at 81%. Moreover, at mouse PKCδ-mVenus (PMA vs probe 47), the “IC50/Ki, PKCδ” value stood at 1.7. Besides, at mouse PKCη-mVenus (PMA vs probe 47), the “Efficacy, PKCη” value amounted to 80%. The “IC50/Ki, PKCη” value on mouse PKCη-mVenus (PMA vs probe 47) was determined as 1.5.
`CO[C@H]1C(=O)[C@]2(C)[C@@H](OC)C[C@H]3OC[C@@]3(OC(C)=O)[C@H]2[C@H](OC(=O)c2ccccc2)[C@]2(O)C[C@H](OC(=O)[C@H](O)[C@@H](NC(=O)OC(C)(C)C)c3ccccc3)C(C)=C1C2(C)C` [cabazitaxel]: the figures for the inhibitory constant (Ki) in assay [2] and in assay [3] were 6 nM and 7.4 ± 0.9 nM, respectively.
On to `CC(=O)O[C@@]12CO[C@@H]1C[C@H](O)[C@@]1(C)C(=O)[C@H](O)C3=C(C)[C@@H](OC(=O)[C@H](O)[C@@H](NC(=O)OC(C)(C)C)c4ccccc4)C[C@@](O)([C@@H](OC(=O)c4ccccc4)[C@H]21)C3(C)C` [docetaxel], for which the Ki in assay [2] is 16 nM; in assay [3], 17 ± 6 nM.
Turning to `COc1cc2cc(c1Cl)N(C)C(=O)C[C@H](OC(=O)[C@H](C)N(C)C(C)=O)[C@]1(C)O[C@H]1[C@H](C)[C@@H]1C[C@@](O)(NC(=O)O1)[C@H](OC)/C=C/C=C(\C)C2` [maytansine], in assay [4], the “cooperativity factor α” value is recorded as 0.21 and the Kb is 3 nM.
Turning to `CC1=C[C@H]2[C@@]3(O)[C@H](C)[C@@H](O)[C@]4(OC(=O)N(C)CCCCCCCCN(C)C(=O)c5cc6cc(F)c(O)c(F)c6oc5=O)[C@H]([C@@H]3C=C(CO)C[C@]2(O)C1=O)C4(C)C` [probe 32, (1aR,1bS,4aR,7aS,7bS,8R,9R,9aS)-4a,7b,9-trihydroxy-3-(hydroxymethyl)-1,1,6,8-tetramethyl-5-oxo-1,1a,1b,4,4a,5,7a,7b,8,9-decahydro-9aH-cyclopropa[3,4]benzo[1,2-e]azulen-9a-yl (8-(6,8-difluoro-7-hydroxy-N-methyl-2-oxo-2H-chromene-3-carboxamido)octyl)(methyl)carbamate], at mouse PKCβI-mVenus [5], the Kd turned out to be 63000 nM.
For `C#CCN(CCCCCCCCCCCCNC(=O)c1cc2cc(F)c(O)c(F)c2oc1=O)C(=O)O[C@@]12[C@H](O)[C@@H](C)[C@@]3(O)[C@@H](C=C(CO)C[C@]4(O)C(=O)C(C)=C[C@@H]34)[C@@H]1C2(C)C` [probe 48, (1aR,1bS,4aR,7aS,7bS,8R,9R,9aS)-4a,7b,9-trihydroxy-3-(hydroxymethyl)-1,1,6,8-tetramethyl-5-oxo-1,1a,1b,4,4a,5,7a,7b,8,9-decahydro-9aH-cyclopropa[3,4]benzo[1,2-e]azulen-9a-yl (12-(6,8-difluoro-7-hydroxy-2-oxo-2H-chromene-3-carboxamido)dodecyl)(prop-2-yn-1-yl)carbamate], the “affinity relative to 33” value at C1A-C1A-EYFP (PKCγ) is reported as approximately 2 fold. Moreover, the Kd at C1A-C1A-EYFP (PKCγ) (verapamil 100 μM, 90 min, 37° C., DMEM high glucose, 4% FBS, read-out: apparent Kd) was 2000 nM.
In the case of `CC[C@]1(O)C[C@@H]2CN(CCc3c([nH]c4ccccc34)[C@@](C(=O)OC)(c3cc4c(cc3OC)N(C)[C@H]3[C@@](O)(C(=O)OC)[C@H](OC(C)=O)[C@]5(CC)C=CCN6CC[C@]43[C@@H]65)C2)C1` [vinblastine], the Kd in [3] (read-out: biochemical Kd for microtubules) was 190 to 1000 nM. In addition, in assay [4], the “cooperativity factor α” value is given as 0.18 and the Kb was determined as 7 nM.
